Structures can show the parent of a compound that is named as a salt.

For orientation: melting point means the temperature, or range, at which the solid turns liquid. `Cc1cc2c(cc1Cl)N(C[C@H](C)N)CC2` (as salt: fumarate) [Example 14] had a melting point of 172 to 174 °C.

Consider `C[C@H](N)CN1CCc2cc(F)cc(Cl)c21` (as salt: fumarate) [Example 17], for which the melting point lay in the range of 195 to 196 °C.

As for `C[C@@H](N)CN1CCc2cccc(Br)c21` (as salt: fumarate) [Example 19], the melting point stood at 197 °C.

For `C[C@H](N)CN1CCc2cccc(Br)c21` (as salt: fumarate) [Example 20], the melting point was in the range of 202 to 204 °C.

Consider `C[C@H](N)CN1CCc2cc(F)c(F)cc21` (as salt: fumarate) [Example 22], for which the melting point is 165 °C (dec.).

In the case of `C[C@H](N)CN1CCc2ccc(Cl)c(Cl)c21` (as salt: fumarate) [Example 23], the melting point was 176 to 178 °C.

`C[C@H](N)CN1CCc2ccc(C(F)(F)F)cc21` (as salt: fumarate) [Example 24] yielded a melting point of 197 to 199 °C.

With `C[C@H](N)CN1CCc2cc(F)c(Br)cc21` (as salt: fumarate) [Example 25], the melting point was in the range of 195 to 196 °C.

`C[C@@H](N)CN1CCc2ccc(C(F)(F)F)cc21` (as salt: fumarate) [Example 26] showed a melting point of 196 to 197 °C.

As to `C[C@H](N)CN1CCc2cc(Cl)ccc21` (as salt: fumarate) [Example 28], the melting point was 207 to 210 °C.

Molecule `C[C@H](N)CN1CCc2cc(F)ccc21` (as salt: fumarate) [Example 29] gave a melting point of 175 to 176 °C.

Turning to `CSc1cc2c(cc1F)CCN2CC(C)N` (stereo not shown) (as salt: fumarate) [Example 30], the melting point lay within 96 to 100 °C.

As to `CCSc1cc2c(cc1F)CCN2C[C@H](C)N` (as salt: fumarate) [Example 31], the melting point is 164 to 168 °C.

Regarding `Cc1cccc2c1CCN2C[C@H](C)N` (as salt: fumarate) [Example 32], the melting point was 161 to 162 °C.

For `C[C@H](N)CN1CCc2c(F)cccc21` (as salt: fumarate) [Example 35], the melting point was 167 to 168 °C.

In turn, `CCc1cccc2c1N(C[C@H](C)N)CC2` (as salt: fumarate) [Example 37] had a melting point of 182 to 183 °C.

The molecule `C[C@H](N)CN1CCc2c(Cl)cccc21` (as salt: fumarate) [Example 38] displayed a melting point of 190 to 192 °C.

As to `CCCSc1ccc2c(c1)N(C[C@H](C)N)CC2` (as salt: fumarate) [Example 41], the melting point fell in the range of 147 to 148 °C.

`CC(C)Sc1ccc2c(c1)N(C[C@H](C)N)CC2` (as salt: fumarate) [Example 42] displayed a melting point of 164 to 165 °C.

As for `C[C@H](N)CN1CCc2ccc(-c3cccnc3)cc21` (as salt: fumarate) [Example 47], the melting point was 155 °C (dec.).

In the case of `C[C@H](N)CN1CCc2ccc(N3CCOCC3)cc21` (as salt: fumarate) [Example 49, (S)-1-[6-(4-Morpholinyl)indolin-1-yl]-2-propylamine Fumarate], the melting point is 188 to 191 °C (dec.).

Consider `NCCN1CCc2ccc(Br)cc21` (as salt: fumarate) [Example 50, 2-(6-Bromoindolin-1-yl)-1-ethylamine Fumarate], for which the melting point lay in the range of 203 to 206 °C.

In turn, `NCCN1CCc2ccc(Cl)cc21` (as salt: fumarate) [Example 51, 2-(6-Chloroindolin-1-yl)-1-ethylamine Fumarate] showed a melting point of 195 to 196 °C.

In the case of `C[C@H](N)CN1CCc2cc(F)c(C(F)(F)F)cc21` (as salt: fumarate) [Example 60, (S)-1-(5-Fluoro-6-trifluoromethylindolin-1-yl)-2-propylamine Fumarate], the melting point lay in the range of 190 to 192 °C.

Molecule `C[C@H](N)CN1CCc2cc(F)c(I)cc21` (as salt: fumarate) [Example 61, (S)-1-(5-Fluoro-6-iodoindolin-1-yl)-2-propylamine Fumarate] registered a melting point of 185 to 187 °C.

For the origin of these results see patent US6380238B1, “Indoline derivatives as 5-HT2B and or 5-HTC receptor ligands” (Vernalis Research Limited, priority 1998, dated 2002).
